According to patent publication US20030013635A1, “Method for the treatment of depression by inhibition of NAALADase” (priority 2001, published 2003):

Tested on: socially defeated mice
Experiment: social defeat (SD) model in the mouse, social interaction with a non-aggressive intruder
Assay type: in vivo
Source text: N-acetylaspartylglutamate (NAAG) is the most abundant peptide neurotransmitter in the brain. Glu release is increased during stress. Inhibiting glutamatergic tone by inhibiting NAALADase proves an antidepressant in the social defeat (SD) model. The SD model is a form of conditioned contextual fear, in which once-defeated mice retain a long-lasting over-generalized fear and avoidance of all mice (even non-aggressive ones) and lose normal species-appropriate territorial defense.
The SD model is a form of conditioned contextual fear, in which once-defeated mice retain a long-lasting over-generalized fear and avoidance of all mice (even non-aggressive ones), losing normal species-appropriate territoriality [Lumley et al., 1999] and displaying immobility in a swim test—a behavior associated with models of depression [Hebert et al., 1998].
Thus, GPI 5232 increased normal territoriality and other species-appropriate social behavior. In sum, this drug diminished behaviors associated with conditioned contextual fear. It is also believed to reduce depression.

In the case of `O=C(O)CCC(CP(=O)(O)Cc1c(F)c(F)c(F)c(F)c1F)C(=O)O` (stereo not drawn) [GPI 5232], the “behaviors associated with conditioned contextual fear” value (SD model) is reported as “markedly diminished”, the “normal territoriality and other species-appropriate social behavior” value (SD model) is reported as “increased” and the “display of territorial behavior in the form of runback re-approaches” value (acute injection, social interaction with a non-aggressive intruder (FIG. 1)) is reported as “significantly increased”.
